What was measured:
[1] = Cytotoxicity against human MRC5 SV2 cells assessed as reduction in cell viability after 3 days resazurin-based fluorimetric assay; settings: MRC-5 SV2, 72 h
Trypanosoma cruzi = experiment: Antiparasitic activity against Trypanosoma cruzi Tulahuen CL2 intracellular amastigotes expressing beta-galactosidase infected in human MRC5 SV2 cells after 7 days by chlorophenol red beta-D-galactopyranoside-based spectrophotometric analysis; assay type: functional, organism-based; settings: Tulahuen CL2, MRC-5 SV2, 168 h, read-out: EC50
[2] = Therapeutic index, ratio EC50 for human MRC5 SV2 cells to EC50 for Trypanosoma cruzi Tulahuen CL2 intracellular amastigotes; assay type: toxicity, cell-based; settings: read-out: Ratio EC50

SMILES	EC50 [1] [µM]	EC50 (Trypanosoma cruzi) [µM]	selectivity ratio [2]
CCc1ccc(-c2cn([C@@H]3O[C@H](CO)C[C@H]3O)c3ncnc(N)c23)cc1	18.4	1.04	18
COc1ccc(-c2cn([C@@H]3O[C@H](CO)C[C@H]3O)c3ncnc(N)c23)cc1	24.3	2.38	10
Nc1ncnc2c1c(C1=CCCCC1)cn2[C@@H]1O[C@H](CO)C[C@H]1O	> 64	31.8	> 2
Nc1ncnc2c1c(-c1cc(Cl)cc(Cl)c1)cn2[C@@H]1O[C@H](CO)C[C@H]1O	30.2	0.55	55
Nc1ncnc2c1c(-c1ccccc1)cn2[C@@H]1O[C@H](CO)C[C@H]1O	61.8	2.57	24
Cc1cc(-c2cn([C@@H]3O[C@H](CO)C[C@H]3O)c3ncnc(N)c23)ccc1Cl	16.7	0.21	80
Nc1ncnc2c1c(-c1cccc(C(F)(F)F)c1)cn2[C@@H]1O[C@H](CO)C[C@H]1O	49.6	11.2	4.4
Nc1ncnc2c1c(-c1ccc(F)cc1)cn2[C@@H]1O[C@H](CO)C[C@H]1O	> 64	0.64	> 100
Nc1ncnc2c1c(-c1ccc(Cl)c(Cl)c1)cn2[C@@H]1O[C@H](CO)C[C@H]1O	13.6	0.059	230
Cc1ccc(-c2cn([C@@H]3O[C@H](CO)C[C@H]3O)c3ncnc(N)c23)cc1C	22.3	1.37	16
Nc1ncnc2c1c(-c1cccc(Cl)c1)cn2[C@@H]1O[C@H](CO)C[C@H]1O	36.1	0.97	37
Nc1ncnc2c1c(-c1ccc(Cl)cc1Cl)cn2[C@@H]1O[C@H](CO)C[C@H]1O	19.6	0.45	44
Cc1ccc(-c2cn([C@@H]3O[C@H](CO)C[C@H]3O)c3ncnc(N)c23)cc1	21	0.46	46
Cc1ccc(-c2cn([C@@H]3O[C@H](CO)C[C@H]3O)c3ncnc(N)c23)cc1Cl	17.8	0.27	66

Reference: ChEMBL document CHEMBL4382200, “Discovery of Novel 7-Aryl 7-Deazapurine 3'-Deoxy-ribofuranosyl Nucleosides with Potent Activity against Trypanosoma cruzi” (J Med Chem, 2018)
